Assay results published in patent US20160090351A1, “INHIBITORS OF DEUBIQUITINATING PROTEASES” (BRANDEIS UNIVERSITY, priority 2013, published 2016).
Entries after “also recorded” stand apart in the source; their conditions may differ.

Legend:
[1] = target: cathepsin C (Homo sapiens, UniProt P53634); assay: cathepsin C inhibition; assay type: biochemical; settings: compounds numbered as in FIG. 5
[2] = target: T1, USP9x (Homo sapiens, UniProt Q93008); assay: HA-Ub-VS labeling in K562 cell lysates; assay type: biochemical; settings: compound 40 minutes, then HA-Ub-VS (1.5 μM) 20 minutes
T1 construct: endogenous in cells; host or cells: K562 cell lysate
T1 sequence (Q93008 whole entry): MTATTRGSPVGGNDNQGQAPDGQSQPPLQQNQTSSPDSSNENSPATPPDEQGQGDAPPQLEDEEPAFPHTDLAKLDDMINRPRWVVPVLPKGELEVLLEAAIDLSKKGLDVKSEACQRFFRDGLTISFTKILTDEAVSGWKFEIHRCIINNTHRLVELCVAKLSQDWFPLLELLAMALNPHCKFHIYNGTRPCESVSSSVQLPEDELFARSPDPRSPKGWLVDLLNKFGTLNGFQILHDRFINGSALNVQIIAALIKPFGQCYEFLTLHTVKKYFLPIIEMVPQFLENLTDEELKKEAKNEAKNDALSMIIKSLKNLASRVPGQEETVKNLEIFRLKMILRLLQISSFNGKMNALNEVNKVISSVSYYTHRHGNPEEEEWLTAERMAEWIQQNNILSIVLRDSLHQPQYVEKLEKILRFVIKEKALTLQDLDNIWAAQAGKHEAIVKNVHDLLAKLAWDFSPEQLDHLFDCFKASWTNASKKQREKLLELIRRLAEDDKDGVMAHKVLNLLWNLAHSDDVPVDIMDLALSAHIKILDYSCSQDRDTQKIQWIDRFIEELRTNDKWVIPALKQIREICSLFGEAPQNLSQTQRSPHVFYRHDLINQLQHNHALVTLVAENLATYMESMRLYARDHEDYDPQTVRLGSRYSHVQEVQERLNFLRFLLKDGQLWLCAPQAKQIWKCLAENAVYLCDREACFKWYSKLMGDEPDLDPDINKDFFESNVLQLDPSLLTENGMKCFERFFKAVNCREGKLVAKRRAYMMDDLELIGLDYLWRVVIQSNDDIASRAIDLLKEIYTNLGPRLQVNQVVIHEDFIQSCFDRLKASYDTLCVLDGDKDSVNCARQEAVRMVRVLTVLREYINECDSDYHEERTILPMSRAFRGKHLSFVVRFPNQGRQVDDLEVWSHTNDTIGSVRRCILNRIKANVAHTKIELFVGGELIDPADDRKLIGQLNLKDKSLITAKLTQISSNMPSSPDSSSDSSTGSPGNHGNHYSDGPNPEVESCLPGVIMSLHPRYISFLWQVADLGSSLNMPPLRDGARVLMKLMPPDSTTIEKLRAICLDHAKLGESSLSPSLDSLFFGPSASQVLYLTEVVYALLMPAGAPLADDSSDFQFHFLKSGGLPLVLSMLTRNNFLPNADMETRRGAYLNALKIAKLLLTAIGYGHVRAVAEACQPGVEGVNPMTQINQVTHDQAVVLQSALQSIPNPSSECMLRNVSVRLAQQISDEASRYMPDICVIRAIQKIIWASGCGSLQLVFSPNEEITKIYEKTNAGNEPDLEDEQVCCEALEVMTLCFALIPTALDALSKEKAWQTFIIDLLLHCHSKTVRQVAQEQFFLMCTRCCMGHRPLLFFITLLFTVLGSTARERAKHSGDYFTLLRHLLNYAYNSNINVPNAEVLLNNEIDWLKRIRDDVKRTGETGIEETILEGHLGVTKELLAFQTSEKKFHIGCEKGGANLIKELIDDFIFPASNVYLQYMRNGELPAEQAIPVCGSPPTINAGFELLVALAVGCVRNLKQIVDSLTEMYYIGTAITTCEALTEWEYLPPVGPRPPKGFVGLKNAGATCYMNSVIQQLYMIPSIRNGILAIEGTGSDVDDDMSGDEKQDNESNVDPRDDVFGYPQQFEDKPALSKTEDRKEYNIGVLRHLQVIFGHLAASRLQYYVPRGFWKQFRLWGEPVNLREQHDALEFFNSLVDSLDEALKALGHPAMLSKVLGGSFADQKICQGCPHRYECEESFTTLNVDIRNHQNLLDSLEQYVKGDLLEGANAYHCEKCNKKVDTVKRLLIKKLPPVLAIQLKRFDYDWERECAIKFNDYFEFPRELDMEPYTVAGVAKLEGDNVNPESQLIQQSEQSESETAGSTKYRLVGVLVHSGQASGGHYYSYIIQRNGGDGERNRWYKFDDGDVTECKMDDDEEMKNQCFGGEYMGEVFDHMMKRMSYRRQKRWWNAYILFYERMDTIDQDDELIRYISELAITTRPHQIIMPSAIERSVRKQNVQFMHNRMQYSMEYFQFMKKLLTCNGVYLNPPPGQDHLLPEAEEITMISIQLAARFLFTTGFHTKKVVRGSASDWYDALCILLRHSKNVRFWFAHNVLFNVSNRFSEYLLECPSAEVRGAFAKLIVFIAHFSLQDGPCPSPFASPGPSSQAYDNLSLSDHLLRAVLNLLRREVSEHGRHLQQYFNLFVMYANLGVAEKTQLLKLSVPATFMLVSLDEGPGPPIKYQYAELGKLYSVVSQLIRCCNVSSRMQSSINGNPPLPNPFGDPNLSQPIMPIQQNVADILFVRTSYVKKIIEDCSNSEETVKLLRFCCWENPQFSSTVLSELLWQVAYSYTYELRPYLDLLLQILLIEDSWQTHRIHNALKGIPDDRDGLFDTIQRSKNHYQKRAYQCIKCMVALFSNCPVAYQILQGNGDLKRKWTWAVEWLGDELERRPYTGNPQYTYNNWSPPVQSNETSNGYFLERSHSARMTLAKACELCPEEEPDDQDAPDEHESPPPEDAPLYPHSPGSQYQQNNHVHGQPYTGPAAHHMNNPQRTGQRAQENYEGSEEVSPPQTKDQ
Procedure: HA-Ub-VS is commonly used to label DUBs in cell lysates. […] A. and B. K562 cell lysates were treated with compound for 40 minutes prior to activity labeling with HA-Ub-VS (1.5 μM) for 20 minutes. Samples were analyzed by SDS-PAGE and immunoblotting with anti-HA antibody. C. […] Values were derived by fitting to the in Prism.

[3] = target: 20S proteasome (Homo sapiens, UniProt P28074); assay: proteasome activity (purified 20S proteasome; GFP-Ub (G76V) in Cos-1 cells); assay type: biochemical; settings: 20S proteasome 30 minutes, Suc-Leu-Tyr-AMC 100 μM; Cos-1 GFP-Ub (G76V) 8 hours
Procedure: A. Purified 20S proteasome was treated with compound for 30 minutes prior to addition of substrate (Suc-Leu-Tyr-AMC, 100 μM). B. Cos-1 cells expressing with GFP-Ub (G76V) were treated with compound for 8 hours, then the level of GFP was measured by flow cytometry.

[4] = tested on: DUBs; assay: decomposition of high molecular weight ubiquitinated proteins (HMW-Ub) in lysates of HEK 293T cells expressing HA-Ub; assay type: biochemical, human; settings: HEK 293T HA-Ub lysates, 37° C.
Procedure: FIG. 30 depicts data showing that diphenylcarbonates inhibit the decomposition of high molecular weight ubiquitinated proteins (HMW-Ub). Lysates were prepared from HEK 293T cells expressing HA-ubiquitin. Samples were incubated at 37° C. and reactions were quenched by the addition of reducing Laemmli buffer. HMW-Ub was assessed by SDS-PAGE and immunoblotting with anti-HA antibody. A. Representative immunoblots measuring the decomposition of HMW-Ub in lysates treated with either the DMSO vehicle, G5 (10 μM) or C4 (500 μM). B. Plot of the decomposition of HMW-Ub in lysates treated with DMSO and C4 (500 μM) (N=2; error bars denote range). C. Inhibition of HMW-Ub decomposition by diphenylcarbonates. Lysates were treated with diphenylcarbonates (50 μM). “-” denotes no treatment; D, 1% DMSO vehicle; IU1, an USP14-specific inhibitor; Bort, bortezomib, a proteasome inhibitor. D. Representative decomposition of HMW-Ub after 2 h incubation in the presence of varying concentrations of C4. See also FIG. 36. E. Quantitation of D. The values of EC50 reported in FIG. 29B are the average and S.E.M. of at least 3 independent experiments. See also FIG. 37 and FIG. 38.
Cells overexpressing HA-ubiquitin were prepared as above. Pellets were typically stored at −80° C. until required, at which time they were thawed on ice. Cell lysis was performed in lysis buffer using a Dounce homogenizer (10 strokes, with grinding, on ice: typical yield approx. 2-5 mg protein per transfected T75 flask for HEK 293T cells; 1-3 mg protein from a T75 flask for Cos-1). Crude lysate was centrifuged at 17000 g for 10 min at 4° C., after which time the concentration of the lysate was normalized to 1 mg/mL. The lysate was aliquoted into PCR strip tubes (typical volumes 75-50 μL) and compound in DMSO was added to this to give a final concentration of DMSO of 1%. Tubes were briefly centrifuged, overlaid with Chill-out wax (50 μL) and placed in a PCR machine at 37° C. with heated lid set to 37° C. Aliquots (9 μL) were removed at the stated times and immediately quenched in (2× final concentration) reducing (dithiothreitol) loading buffer and frozen (−19° C.) till required. Western blot analysis was carried out using standard methods. Samples were resolved by SDS-PAGE, transferred to PVDF [(0.45 μm) (Towbin buffer, tank apparatus, 90 V 1 hour, then overnight at 30 V, 4° C.)] then blocked in 15% milk in TBS-T HS (100 mM Tris HCl, pH 7.6, 500 mM NaCl, 0.5% […]) for at least 2 hours at RT. Afterward, membrane was washed in TBS-T HS then probed with anti HA-HRP (1:18000) for 1.33 hours at RT. Membrane was washed 3 times in TBS-T HS (15 mins) then once in TBS (15 mins) and exposed to ECL II and visualized using blue biofilm. […] When required, membranes were stripped in 100 mM glycine pH 4, 500 mM NaCl, 1% SDS, 5 mM BME, at 55° C. for 19 mins, then analyzed.
Lysates were prepared from HEK 293T cells expressing N-terminally HA-tagged ubiquitin (HA-Ub) to facilitate the observation of ubiquitinated proteins. In the absence of a DUB inhibitor, the HMW-Ub pool decomposed with a half-life of 34 min (FIG. 30A,B). […] Similar results were obtained in lysates prepared from Cos-1 cells expressing HA-Ub.

[5] = tested on: ubiquitin-proteasome system; assay: GFP-G76V-Ub assay in HEK 293T cells; assay type: cell-based, human; settings: diphenyl carbonates 100 μM, bortezomib 20 μM, G5 2 μM
Procedure: FIG. 32 depicts data showing that diphenyl carbonates inhibit DUBs in HEK 293T cells. A. Viability of HEK 293T cells assessed by the propidium iodide exclusion method: diphenyl carbonate (100 μM), bortezomib (V, 20 μM) and G5 (2 μM). N≧3, mean+/−s.d. B. HEK 293T cells were treated with the stated compounds (50 μM) for 2 h and then assayed for the accumulation of K48-linked Ub species. C. As in A, but K63-linked Ub was assayed. D. HEK 293T cells were treated with C14, C15, C17, C18 (100 μM) or DMSO for 2 hours, then harvested, lysed and treated with HA-Ub-VS. After 30 min, lysates were analyzed by SDS-PAGE and probed for HA, tubulin and actin. An intervening lane was removed for clarity. E. HEK 293T cells expressing Ub-G76V-GFP were treated with diphenyl carbonates (100 μM), bortezomib (20 μM) and G5 (2 μM). […] N>3, Mean+/−s.d. See also FIG. 39.
FACS was carried out on a […] FACS-Calibur. For HEK 293T and K562, cells were resuspended by repeated pipetting/agitation of the incubation media, followed by dilution into PBS. For Cos-1, MCF-7, and CHO cells, media was removed and trypsin was added. Harvested cells were placed in FACS buffer (0.5% FBS in PBS with 3 μg/mL propidium iodide) 30 s prior to analysis. All data were analyzed using FlowJo V10, from TreeStar (Ashland, Oreg.). Approximately 2500 cells were sorted per replicate. Cells were sorted by propidium iodide dye exclusion to give a “viable population”. GFP positive cells within this group were identified relative to untransfected controls. Then the geometric mean of the whole GFP positive population within the viable population was calculated. Typical transfection efficiencies for G76V ubiquitin were 60-70% for both Cos-1 and HEK 293T and 25-40% for CHO cells, based on GFP positive cells.
The activity of the diphenylcarbonates in the GFP-G76V-Ub assay, which monitors flux through the ubiquitin-proteasome system, was also investigated. The G76V mutation creates an unstable Ub fusion protein that is degraded in a proteasome dependent process. GFP fluorescence increased when HEK 293T cells expressing GFP-G76V-Ub were treated with the proteasome inhibitor bortezomib and decreased upon treatment with G5 (FIG. 39). This decrease has been attributed to increased flux through the ubiquitin-proteasome system triggered by the accumulation of HMW-Ub. […] Perhaps the inability of the diphenylcarbonates to inhibit UCH-L1/3 accounts for the stability of GFP-G76V-Ub. This selectivity might also explain the low cytoxicity of these compounds relative to G5.

[6] = tested on: G76V ubiquitin-GFP fusion protein; assay: G76V ubiquitin-GFP fusion protein fluorescence, Example 5; assay type: cell-based; settings: Example 5, FIG. 9 bottom panel
Procedure: Cells treated with 4 (100 μM; as defined in FIG. 3) show PARP cleavage that indicates caspases are active. The fluorescence of G76V ubiquitin-GFP fusion protein increases in the presence of inhibitor 4 (as defined in FIG. 3), as expected if degradation […] due to inhibition of DUBs. In contrast, GFP fluorescence […] when the proteasome is inhibited by bortezomib.

[7] = tested on: B16/F10 cells; assay: proliferation and cell cycle of B16/F10 cells; assay type: cell-based, mouse; settings: 72 h, flow cytometry
Procedure: A. MCF7 cells were treated with C17 for 4 h and Mdm2 levels were measured. B. As in A, P53 measured. C. As in A, P21 measured. D. MCF7 and B16/F10 cells were treated with C17 every 24 hours. After 72 hours, the number of viable cells was measured by Alamar Blue®.
MCF7 cells were dosed every 2 hours with the indicated concentration of C15. After 6 hours, cells were lysed by freeze thaw and then sonicated in 0.5% SDS. A. Total lysates were blotted for K48-linked ubiquitin and actin. B. Normalized K48-linked ubiquitin signal was plotted as a function of concentration of C15 (N=2). C. […] Doxorubicin (Dox) is a DNA damaging agent that serves as a positive control for the induction of P53. D. Quantitation of P53 levels in C relative to actin (N=2). […] MCF7 cells were treated under the stated conditions then analyzed for cell cycle. F. DMSO treated cells. G. Cells treated with C17 (25 μM), dosed every 24 hours. H. Cells treated with C17 (50 μM), dosed every 24 hours. […] These cells were left for 72 h (single dose) after which time the total number of viable cells was analyzed using Alamar Blue®. All data are n≧4 showing mean+/−s.e.m. K. MCF7 cells were plated with C17 for 24 hours after which time the total number of viable cells was measured by Alamar Blue®. L. B16/F10 cells were treated with DMSO, C17 or P005091 for 72 h. […] After this time, cells were analyzed by flow cytometry.
All cells were grown at 37° C. in a 5% CO2 humidified atmosphere in DMEM supplemented with 10% heat inactivated FBS, 1× glutamax, and 1× penicillin/streptomycin. […] Typically clarified lysate was analyzed. […] Lysates were centrifuged (20 000 rpm, microcentrifuge, Eppendorf 5417 C) concentration was measured, then 0.1% SDS was added and lysates were sonicated for a total of 30 s (in 10 s bursts). Protein concentration was determined using Bradford assay with IgG as standard and analyzed by western blot as delineated below {[9 μg total protein for K48-linked ubiquitin (1:9000 antibody dilution), SMAD4 (1:500) or PARP (1:1000)]; [30-40 μg was loaded for K63-linked ubiquitin (1:1500), Mdm2 (1:1000) or Abl (1:1500). […]

[8] = tested on: K562 cells; assay: apoptosis, cell cycle and viability of K562 cells by flow cytometry; assay type: cell-based, human; settings: annexin V-FITC / propidium iodide, 24 hours (TU50 also 8 hours)
Procedure: (§1) K562 cells are from a myelogenous leukemia line that expresses Bcr-Abl kinase. A. K562 cells were treated with TU50 for 24 hours after which time the cells were treated with annexin V-FITC and propidium iodide. Cells were then analyzed by flow cytometry. Cells showing only annexin V-FITC were considered apoptotic whereas cells showing both annexin V-FITC and propidium iodide were considered necrotic. N=2. All points show a significant difference to the vehicle (DMSO) with p<0.05. […] All points show a significant difference to vehicle (DMSO) with p<0.02. C. Same as A, but the incubation period was 8 hours. N>2. All points show a significant difference to DMSO with p<0.02. D, K562 cells were treated with TU50 for 4 hours. Samples were analyzed by SDS-PAGE and immunoblotting with anti-Bcr-Abl antibody. E. Quantitation of blot in D. The signal for tubulin was used to normalize the Bcr-Abl signal. N=3.
(§2) FIG. 40 depicts data showing that diphenyl carbonates induce the degradation of Bcr-Abl kinase. A. K562 cells were treated with C17 for 24 h (1 dose) then analyzed for Bcr-Abl expression by western blot with anti-Abl antibody. B. Quantitation of blots in A normalized to actin. C. K562 cells were treated with C17 for 24 h then the amount of cells in G1 and apoptosis were recorded (N=3). D. K562 were treated with C15 for 4 h then analyzed for Bcr-Abl expression using western blot. E. Quantitation of Bcr-Abl from D normalized to tubulin (N=4). F. Same K562 lysates were separately analyzed for K63-linked ubiquitin. G. Quantitation of blots in F (N=4). Differences between all bars is significant p<0.01). H. K562 cells were treated with C15 for 24 h after which time cells were fixed in ethanol, treated with propodium iodide/RNAse then analyzed by FACS. Viability was calculated using forward and side scatter. I. Same experiment as H but red fluorescence was measured to determine DNA content

[9] = tested on: Bcr-Abl kinase; assay: Bcr-Abl levels in K562 cells by immunoblotting; assay type: cell-based, human; settings: TU50 4 hours
Procedure: as §1
FIG. 34 depicts data showing that diphenylcarbonates cause the accumulation of HMW-Ub and reduce the levels of Bcr-Abl in K562 cells. A. K562 cells were treated with diphenyl carbonates (50 μM) for 2 h and then assayed for the accumulation of K48-linked Ub. B. As in A, but Bcr-Abl was measured by immunoblotting with anti-Abl antibodies. C. K562 cells were treated with C17 (50 μM) in the presence and absence of bortezomib (6 μM) for 4 hours and Bcr-Abl was measured by immunblotting with anti-Abl antibodies. D. Quantitation of blot in C. Significance: DMSO relative to C17 and bortezomib p=0.002; DMSO relative to C17, p=0.03. E. K562 cells were treated with C15 for 4 hours then analyzed for SMAD4 monoubiquitination by western blot. F. Quantitation of blots in A. (N=3). See also FIG. 40.
as §2
Transfected cells were harvested 1.5 days post transfection. […] Typically clarified lysate was analyzed.

[10] = tested on: desumoylation; assay: stabilization of SUMOylated proteins in lysates from HA-SUMO transfected HEK 293T cells; assay type: biochemical, human; settings: G5 5 μM, C4 300 μM
Procedure: Untransfected HEK 293T cell lysates were treated with the vehicle alone (DMSO at 1%) or compound and incubated at 37° C. for 2 h. Samples were analyzed by SDS-PAGE and immunoblotting with antibody recognizing K48-linked ubiquitin. D=DMSO; G5=G5 isopeptidase inhibitor 1. A-D show titrations of different compounds (see FIG. 29B for structures). E-H Lysates were prepared from HEK 293T cells expressing HA-SUMO and treated with vehicle alone (DMSO, 1%) or compound. Samples were incubated for the appropriate time and analyzed by SDS-PAGE and immunoblotting with anti-HA antibody. Representative experiments are shown. E. Vehicle control. F. G5, 5 μM; G. C4, 300 μM. H. Quantification of blots as in E-G, N=2 average and range. I-J. Lysates were prepared from HEK 293T cells expressing HA-Ub and treated with either vehicle alone (1% DMSO) or compound at 37° C. for 3 h. Samples were analyzed by SDS-PAGE and immunoblotting with anti-HA antibody. I. A representative experiment. J. Quantitation of experiments in I (N=2 average and range shown). […]
Similar effects were observed when the endogenous K48-linked ubiquitin pool was monitored in lysates prepared from wild-type HEK 293T cells (FIG. 37A-D). Unfortunately, K63-linked ubiquitin could not be detected in these lysates. The ability of C4 to stabilize SUMOylated proteins in lysates from HA-SUMO transfected HEK 293T cells was also assessed.

Chain of cathepsin C (P53634 25-463, species assumed): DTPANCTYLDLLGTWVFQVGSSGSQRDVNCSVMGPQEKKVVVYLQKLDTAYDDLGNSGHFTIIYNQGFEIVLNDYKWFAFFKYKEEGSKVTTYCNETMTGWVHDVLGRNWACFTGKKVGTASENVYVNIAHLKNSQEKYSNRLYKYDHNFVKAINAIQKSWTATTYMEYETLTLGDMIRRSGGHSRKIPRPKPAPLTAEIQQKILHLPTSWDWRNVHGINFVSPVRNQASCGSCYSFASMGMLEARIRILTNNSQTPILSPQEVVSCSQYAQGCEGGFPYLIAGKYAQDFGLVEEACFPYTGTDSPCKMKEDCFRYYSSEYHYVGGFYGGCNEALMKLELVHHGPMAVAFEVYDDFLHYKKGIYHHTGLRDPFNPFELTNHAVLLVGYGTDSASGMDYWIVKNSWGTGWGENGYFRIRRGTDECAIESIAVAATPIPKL

SMILES: NCc1ccc(OC(=O)Oc2ccc(Cl)cc2)cc1 [compound 3]
- inhibition of cathepsin C [1]: does not

SMILES: CC(C)(C)OC(=O)NCCc1ccc(N=C=S)cc1 [TU46]
- EC50 [2]: 11 ± 4 µM
- effect on proteasome activity [3]: no effect on proteasome activity

SMILES: CC(C)C[C@H](NC(=O)[C@H](Cc1ccccc1)NC(=O)c1cnccn1)B(O)O [bortezomib, reference compound]
- stabilization of the HMW-Ub pool [4]: failed to stabilize the HMW-Ub pools
- GFP fluorescence [5]: Only bortezomib treatment caused an increase in GFP fluorescence; also recorded: increased
- GFP fluorescence of G76V ubiquitin-GFP [6]: decreases

SMILES: CC(=O)c1cc([N+](=O)[O-])c(Sc2cccc(Cl)c2Cl)s1 [Compound P005091, reference compound]
- cell cycle distribution [7]: decrease in cells in G1 phase and an increase in G2

SMILES: O=C(NCc1ccc(N=C=S)cc1)OCc1ccccc1 [TU49]
- effect on proteasome activity [3]: no effect on proteasome activity
- apoptosis of K562 cells [8]: induce apoptosis of K562 cells
- Bcr-Abl kinase level [9]: cause degradation of Bcr-Abl kinase

SMILES: NCc1ccc(OC(=O)Oc2ccccc2)cc1 [Compound C4, 4-(aminomethyl)phenyl(phenyl)carbonate]
- stabilization of the HMW-Ub pool [4]: prevented decomposition of the HMW-Ub pool
- inhibition of desumoylation [10]: Neither G5 nor C4 inhibited desumoylation
